Patent US8178077B2, “Drug development target protein and target gene, and method of screening” (Reverse Proteomics Research Institute Co., Ltd., priority 2004, dated 2012)
Where a name gives a salt, the structure may show the parent alone.

Molecular target: T1, FLJ39196 clone-derived protein (human neurocalcin δ) (Homo sapiens, UniProt P61601)
T1 construct: A human full-length cDNA clone was expressed as a protein with an N-terminal His tag; His tag (N); made in house; host or cells: Escherichia coli BL21star(DE3)pLysS (pDEST17 Gateway expression plasmid)
Test: SEC/MS interaction analysis (size exclusion spin column and mass analysis) with FLJ39196 clone-derived protein
Format: binding
Text: To analyze the interactions between commonly used drugs and proteins expressed from human full-length cDNA clones while keeping both the proteins and the compounds in non-modified, non-immobilized state, size exclusion chromatography (SEC) and mass analysis were used in combination (FIGS. 1, 2). The specific procedures are shown below.
The compound-protein mixture prepared in step 1 was subjected to chromatography using an SEC column, the compound and the protein were separated by SEC, and the compound that interacted with the bound compound or protein contained in the protein fraction was analyzed using a mass analyzer.
Protein concentrations were measured using BCA Protein Assay (PIERCE), in consideration of the purity calculated by SDS-PAGE.
Mass analysis was performed using LCQ DECA XP (Thermoelectron) or Q-TOFmicro (Micromass), equipped with an ESI probe. The LC pump used was Agilent 1100 (Yokogawa Analytical Systems), and the autosampler used was HTC-PAL (CTC Analytics) equipped with a cooling stacker.
In the SEC method using 384-well spin columns, Unifilter 100 (Whatman), packed with 10 μL (dry volume) of Bio-Gel P6 (BIO-RAD) and swollen with milliQ water, was used as the SEC column. 13.3 μL of a protein-free reference standard or a 25 μM protein standard and 0.7 μL of a multiplied liquid comprising 25 μM of each pharmaceutical compound (5% DMSO aqueous solution) were mixed; 9 μL of this mixture was aliquoted into the SEC spin columns. The SEC spin column was mounted on an acetonitrile-aliquoted 384-well U-bottom plate and centrifuged; the SEC spin column filtrate, which is a protein fraction, was retrieved in 50% acetonitrile. The protein precipitate produced by the acetonitrile was removed via centrifugation and filtration for deproteinization; the resulting filtrate was concentrated by centrifugation and re-dissolved in 10 μL of 50% methanol to obtain a mass analysis sample. The mobile phase supplied to the mass analyzer was 0.1% formic acid/50% methanol solution in the positive ion mode, and 0.1% ammonia/50% methanol solution in the negative ion mode; these mobile phases were used at a flow rate of 40 μL/min. 2-μL of mass analysis samples were injected using an autosampler at 2-minute intervals; the mass spectral intensity of the compound was measured to obtain the spectral intensity of the pharmaceutical compound contained in the SEC spin column filtrate (protein fraction eluted from SEC).

[1] = protein 0 μM (protein-free reference), compound 1 μM
[2] = protein 0 μM (protein-free reference), compound 10 μM
[3] = protein 0 μM (protein-free reference), compound 100 μM
[4] = protein 0 μM (protein-free reference), compound 250 μM
[5] = protein 23.75 μM, compound 1 μM
[6] = protein 23.75 μM, compound 10 μM
[7] = protein 23.75 μM, compound 100 μM
[8] = protein 23.75 μM, compound 250 μM
[9] = protein 47.5 μM, compound 10 μM
[10] = protein 47.5 μM, compound 100 μM
[11] = protein 47.5 μM, compound 250 μM

Structure (SMILES)	spectral intensity of the compound in the SEC spin column filtrate (protein fraction) [1]	spectral intensity of the compound in the SEC spin column filtrate (protein fraction) [2]	spectral intensity of the compound in the SEC spin column filtrate (protein fraction) [3]	spectral intensity of the compound in the SEC spin column filtrate (protein fraction) [4]	spectral intensity of the compound in the SEC spin column filtrate (protein fraction) [5]	spectral intensity of the compound in the SEC spin column filtrate (protein fraction) [6]	spectral intensity of the compound in the SEC spin column filtrate (protein fraction) [7]	spectral intensity of the compound in the SEC spin column filtrate (protein fraction) [8]	spectral intensity of the compound in the SEC spin column filtrate (protein fraction) (protein 47.5 μM, compound 1 μM)	spectral intensity of the compound in the SEC spin column filtrate (protein fraction) [9]	spectral intensity of the compound in the SEC spin column filtrate (protein fraction) [10]	spectral intensity of the compound in the SEC spin column filtrate (protein fraction) [11]
OCCN1CCN(CC/C=C2/c3ccccc3Sc3ccc(C(F)(F)F)cc32)CC1 [Flupentixol cis-(Z)]	57845690	59201705	138331819	1019443291	38801184	66148127	474717521	1437323119	54783295	82852252	1301876646	1766098462
O=C(c1ccc(OCCN2CCCCC2)cc1)c1c(-c2ccc(O)cc2)sc2cc(O)ccc12 [Raloxifene hydrochloride]	3754698	2330594	7909682	10553153	3790373	6024709	124641622	157539770	3014448	17385466	122918120	666932700
CC(O)(CS(=O)(=O)c1ccc(F)cc1)C(=O)Nc1ccc(C#N)c(C(F)(F)F)c1 (stereo not drawn) [Bicaltamide]	196020	269681	3889442	1804944	264437	914364	18349511	53664833	390946	4168309	24933110	112816687
CC(NCCC(c1ccccc1)c1ccccc1)c1ccccc1 (stereo not drawn) [Fendiline]	18341826	21106520	134902492	315067466	15884361	18323956	118321460	396979100	24572438	26691498	256481478	565679716
CN(C)CC/C=C1/c2ccccc2Sc2ccc(Cl)cc21 [Chlorprothixene]	12908294	15368592	30558420	80321853	21615977	31548696	104338961	243359670	25013147	52145413	207034486	433637183
CCOC(=O)Oc1c(OC)cc(C(=O)O[C@@H]2C[C@@H]3CN4CCc5c([nH]c6cc(OC)ccc56)[C@H]4C[C@@H]3[C@H](C(=O)OC)[C@H]2OC)cc1OC [Syrosingopine]	38126829	47209784	41362697	38512184	63594361	101347281	465474678	596250311	70443152	105524442	897067633	1499127775
CC(C)COCC(CN(Cc1ccccc1)c1ccccc1)N1CCCC1 (stereo not drawn) [Bepridil]	9581826	14048756	358168208	1566782176	7408112	35655439	771184721	1841002486	7866658	40680909	1156825217	1990085657
